From patent US20090142330A1, “Use of inactive-plasmin to treat chronic inflammatory disease and tumors” (The Government of the United States of America as …, priority 2007, published 2009)

B1: inactive plasmin: plasmin in which the catalytic site had been irreversibly blocked with a peptide inhibitor; from Molecular Innovations, Inc. (protein)
chain: KVYLSECKTGNGKNYRGTMSKTKNGITCQKWSSTSPHRPRFSPATHPSEGLEENYCRNPDNDPQGPWCYTTDPEKRYDYCDILECEEECMHCSGENYDGKISKTMSGLECQAWDSQSPHAHGYIPSKFPNKNLKKNYCRNPDRELRPWCFTTDPNKRWELCDIPRCTTPPPSSGPTYQCLKGTGENYRGNVAVTVSGHTCQHWSAQTPHTHNRTPENFPCKNLDENYCRNPDGKRAPWCHTTNSQVRWEYCKIPSCDSSPVSTEQLAPTAPPELTPVVQDCYHGDGQSYRGTSSTTTTGKKCQSWSSMTPHRHQKTPENYPNAGLTMNYCRNPDADKGPWCFTTDPSVRWEYCNLKKCSGTEASVVAPPPVVLLPDVETPSEEDCMFGNGKGYRGKRATTVTGTPCQDWAAQEPHRHSIFTPETNPRAGLEKNYCRNPDGDVGGPWCYTTNPRKLYDYCDVPQCAAPSFDCGKPQVEPKKCPGRVVGGCVAHPHSWPWQVSLRTRFGMHFCGGTLISPEWVLTAAHCLEKSPRPSSYKVILGAHQEVNLEPHVQEIEVSRLFLEPTRKDIALLKLSSPAVITDKVIPACLPSPNYVVADRTECFITGWGETQGTFGAGLLKEAQLPVIENKVCNRYEFLNGRVQSTELCAGHLAGGTDSCQGDSGGPLVCFEKDKYILQGVTSWGLGCARPNKPGVYVRVSRFVTWIEGVMRNN

Columns and labels:
[1] = system: MMP-1 production by monocytes; assay: MMP-1 protein in monocyte conditioned media, Western blot; format: cell-based, human; settings: for effect on HMW-uPA enhancement of MMP-1 / effect on plasmin enhancement of MMP-1 / effect on LPS-induced MMP-1 production: monocytes preincubated 30 min with agent; for effect on HMW-uPA enhancement of MMP-1: then LPS plus HMW-uPA; for effect on plasmin enhancement of MMP-1: then LPS plus plasmin; for effect on LPS-induced MMP-1 production: then LPS
Source text: Reagents. High molecular weight urokinase plasminogen activator (HMW-uPA), low molecular weight uPA (LMW-uPA), amino-terminal fragment-uPA (ATF-uPA) and α2-antiplasmin were obtained from American Diagnostica Inc. (Stamford, Conn.). […] LPS Escherichia coli 05:B55 was purchased from Sigma-Aldrich (St. Louis, Mo.). ERK1/2/phospho-ERK1/2 and p38/phospho-p38 antibodies were from Cell Signaling Technology (Beverly, Mass.). MMP-1 antibodies used were rabbit polyclonal antibodies against MMP-1 (provided by Dr. Henning Birkedal-Hansen, NIDCR/NIH) and a mouse anti-human MMP-1 monoclonal antibody (Chemicon International, Inc., Temecula, Calif.). Rabbit anti-COX-2 antibodies were obtained from Cayman Chemical Company (Ann Arbor, Mich.) and mouse anti-β-actin antibodies were from Chemicon International, Inc., Temecula, Calif.). Purification and culture of human monocytes. Human peripheral blood cells were obtained by leukapheresis of non-disease subjects. The monocyte fraction was purified by counter-flow centrifugal elutriation as previously described (Wahl et al., Cell Immunol. 85: 373-383, 1984; and Wahl et al., “In Current Protocols in Immunology,” eds. John Wiley & Sons, Inc. NY. Vol. 2: 7.6A.1-7.6A.10., 2005) and contained greater than 90% monocytes as determined by morphology and flow cytometry. Monocytes were cultured in serum-free Dulbecco Modified Eagle's Medium (DMEM; Cambrex, Walkersville, Md.) supplemented with 2 mM L-glutamine (Mediatech, Herndon, Va.) and 10 μg/ml gentamycin (Cambrex, Walkersville, Md.). Western blot analysis of MMP-1, MAPKs and COX-2. For MMP-1 determination, purified monocytes were cultured at a density of 5×10^6/ml of DMEM in 12 well polystyrene plates (Corning Incorporated Life Sciences, Lowell, Mass.). After 36 to 48 hours of treatment with reagents, the conditioned media were centrifuged and collected. Bovine serum albumin (BSA; 40 μg/ml) was added to the culture supernatants prior to the precipitation of the proteins with cold ethanol (final concentration, 60%) for at least 15 min at −70° C. The proteins were pelleted by microcentrifuging at 20,800×g for 12 min, washed with ethanol, and lyophilized by rotary evaporation. The lyophilized proteins were resuspended in sodium dodecyl sulfate (SDS)-Laemmli buffer [500 mM Tris-HCl (pH 6.8)/10% SDS/0.01% bromophenol-blue/20% glycerol], reduced with 5% β-mercaptoethanol, heated for 4 min at 100° C., and electrophoresed on a 10 or 12% Tris-glycine gel in SDS running buffer [25 mM Tris-HCl (pH 8.3)/192 mM glycine/[…]]. The proteins were transferred onto 0.45 μm nitrocellulose in a buffer containing 25 mM Tris-HCl (pH 8.3)/192 mM glycine/20% methanol and blocked with 50 mM Tris-HCl (pH 7.5)/150 mM NaCl (TBS) containing 5% nonfat dry milk for at least 1 hour. The blots were then incubated overnight with antibodies against MMP-1.
Western blots for MMP-1, MAPKs and COX-2 were incubated overnight with primary antibodies, washed and analyzed by the addition of Alexa Fluor 680 goat anti-rabbit or Alexa Fluor 750 goat anti-mouse antibodies (Molecular Probes® Inc., Eugene, Oreg.) and the infrared fluorescence detected with the Odyssey infrared imaging system (LI-COR, Lincoln, Nebr.). Densitometry analysis of the bands on the Western blots was determined with the LI-COR software analysis program or the ImageQuant software analysis program (Amersham Biosciences, Piscataway, N.J.).

[2] = target: T1, annexin A2 heterotetramer (annexin A2 p36 / S100A10 p11) on monocytes (Homo sapiens, UniProt P07355+P60903); assay: Binding of FITC-labeled plasmin to monocytes, flow cytometry; settings: preincubation of monocytes 30 min with agent before plasmin-FITC
T1 construct: Purified human monocytes were fixed and permeablized; endogenous in cells; host or cells: purified human peripheral blood monocytes, fixed and permeabilized
Protocol: (§1) Plasmin activity assay. Plasmin activity was determined with the SPECTROZYME PL kit (American Diagnostica Inc., Stamford, Conn.) which utilizes the chromogenic substrate H-D-norleucyl-hexahydrotyrosol-lysine-para-nitroanilide diacetate. For detection of cell-associated plasmin activity, monocytes were cultured at 1×10^6/well in Hanks Balanced Solution containing calcium and magnesium (Hyclone, Logan, Utah) with the plasmin substrate. Kinetic absorbance readings were measured at 405 nm. RT-PCR. Total cellular RNA was extracted with the RNeasy Mini Kit (QIAGEN® Inc., Valencia, Calif.) 8 hours after stimulation of monocytes with LPS. Transcript levels of MMP-1 were determined using semiquantitative reverse transcriptase-polymerase chain reaction (RT-PCR) with GADPH as an internal control. […] The amplified DNA was separated by 1.7% agarose gel electrophoresis, stained with SYTO 60 red fluorescent nucleic acid stain (Molecular Probes®, Eugene, Oreg.), and the intensity of the stained bands was analyzed with an infrared imaging system. […] FITC-conjugated BSA, plasmin (2.5 μg in 10 μl) or anti-human antibodies (1-2.5 μg/10 μl) then were added, respectively, incubated for 30 min and washed and analyzed by the FACSCalibur system (Becton Dickinson Biosciences, Franklin Lakes, N.J.). […] Flow cytometry results were analyzed by CELLQuest software (Becton Dickinson Biosciences, Franklin Lakes, N.J.). […]

annexin A2 on monocytes = target: T2, annexin A2 on monocytes (Homo sapiens, UniProt P07355); assay: Binding of goat anti-human annexin A2 antibodies to monocytes, flow cytometry; settings: pre-treated with agent 30 minutes; FIG. 6D
T2 construct: Purified human monocytes were fixed and permeablized; endogenous in cells; host or cells: purified human peripheral blood monocytes, fixed and permeabilized
Protocol: as §1

plasmin = target: T3, plasmin (Homo sapiens, UniProt P00747); assay: Cell free plasmin activity assay (SPECTROZYME PL); format: biochemical; settings: compared with plasmin alone, FIG. 6B
T3 construct: purchased Sigma-Aldrich
Protocol: as §1

T2 sequence (P07355 whole entry): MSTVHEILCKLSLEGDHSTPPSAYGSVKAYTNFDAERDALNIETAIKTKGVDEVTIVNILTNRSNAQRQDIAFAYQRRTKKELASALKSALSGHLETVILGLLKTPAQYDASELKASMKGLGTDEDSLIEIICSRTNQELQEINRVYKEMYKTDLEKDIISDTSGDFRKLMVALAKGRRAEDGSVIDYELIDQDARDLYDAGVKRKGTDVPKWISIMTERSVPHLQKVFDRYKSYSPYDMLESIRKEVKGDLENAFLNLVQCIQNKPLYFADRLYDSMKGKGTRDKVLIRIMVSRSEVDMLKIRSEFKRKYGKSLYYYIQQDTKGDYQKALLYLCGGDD
T1 sequence (P07355 2-339 limits assumed): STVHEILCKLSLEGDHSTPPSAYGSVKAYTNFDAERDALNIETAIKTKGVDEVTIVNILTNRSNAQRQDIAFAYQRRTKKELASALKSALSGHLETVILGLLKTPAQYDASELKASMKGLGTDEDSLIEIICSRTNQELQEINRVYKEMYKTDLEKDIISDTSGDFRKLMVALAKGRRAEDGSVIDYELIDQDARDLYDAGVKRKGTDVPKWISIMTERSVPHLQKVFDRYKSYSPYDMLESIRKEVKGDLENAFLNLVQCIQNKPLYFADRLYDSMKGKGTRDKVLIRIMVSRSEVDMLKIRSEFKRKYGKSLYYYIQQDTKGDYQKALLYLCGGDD
T1 sequence (P60903 2-97 limits assumed): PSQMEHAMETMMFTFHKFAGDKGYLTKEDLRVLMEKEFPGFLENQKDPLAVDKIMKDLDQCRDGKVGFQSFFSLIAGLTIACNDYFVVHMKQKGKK

| Molecule | effect on HMW-uPA enhancement of MMP-1 [1] | effect on plasmin enhancement of MMP-1 [1] | restoration of MMP-1 after indomethacin inhibition ([1]; PGE2 1 μM added to indomethacin-treated monocytes, FIG. 4C) | effect on LPS-induced MMP-1 production [1] | binding of FITC-labeled plasmin to monocytes [2] | binding of antibodies against annexin A2 to monocytes (annexin A2 on monocytes) | plasmin activity of inactive plasmin combined with plasmin (plasmin) |
| --- | --- | --- | --- | --- | --- | --- | --- |
| COc1cccc(-c2cc(=O)c3ccccc3o2)c1N [PD98059] | suppressed the enhancement | suppressed the enhancement |  |  |  |  |  |
| CCCCC[C@H](O)/C=C/[C@H]1[C@H](O)CC(=O)[C@@H]1C/C=C\CCCC(=O)O [PGE2, prostaglandin-E2] |  |  | restored, in part |  |  |  |  |
| C[S+]([O-])c1ccc(-c2nc(-c3ccncc3)c(-c3ccc(F)cc3)[nH]2)cc1 (stereo not shown) [SB203580] | suppressed the enhancement | suppressed the enhancement |  |  |  |  |  |
| COc1ccc2c(c1)c(CC(=O)O)c(C)n2C(=O)c1ccc(Cl)cc1 [indomethacin] | inhibited | inhibited |  | inhibited |  |  |  |
| B1 |  | inhibited the production of MMP-1 |  | inhibited the production of MMP-1 | blocked the binding | blocked the binding | same activity as plasmin alone |
